Laboratory results published in ChEMBL document CHEMBL1201862, “PubChem BioAssay data set” (2004).
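Cells were grown in 96-well plates and exposed to each compound for 48 hours at five concentrations; endpoints were interpolated linearly between bracketing concentrations, or set to the highest concentration if not reached. At the GI50, growth is halved.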 Calls of active or inactive are those of the source. Cut-off read from the data, not from the text of the source: active = GI50 up to about 1.1 µM and inactive = higher.

Legend:
Assay in all cases: inhibition of tumour cell growth, NCI panel, 48 h
[1] = test system: IGROV-1
[2] = test system: KM12
[3] = test system: RPMI-8226
[4] = test system: PC-3
[5] = test system: NCI-H226
[6] = test system: COLO 205
[7] = test system: SNB-75
[8] = test system: SNB-19
[9] = test system: Hs-578T
[10] = test system: SN12C
[11] = test system: SK-MEL-5
[12] = test system: Malme-3M
[13] = test system: MDA-MB-231
[14] = test system: NCI-H522
[15] = test system: 786-0
[16] = test system: HT-29
[17] = test system: BT-549
[18] = test system: EKVX
[19] = test system: SK-OV-3
[20] = test system: UACC-62
[21] = test system: M14
[22] = test system: DU-145
[23] = test system: HCT-15
[24] = test system: UACC-257
[25] = test system: OVCAR-4
[26] = test system: SF-539
[27] = test system: A498
[28] = test system: SW-620
[29] = test system: ACHN
[30] = test system: MOLT-4
[31] = test system: CCRF-CEM
[32] = test system: NCI-H23
[33] = test system: SF-295
[34] = test system: SK-MEL-2
[35] = test system: MDA-N
[36] = test system: U-251
[37] = test system: CAKI-1
[38] = test system: A549
[39] = test system: MDA-MB-435
[40] = test system: OVCAR-5
[41] = test system: HOP-62
[42] = test system: OVCAR-8
[43] = test system: HCC 2998
[44] = test system: RXF 393
[45] = test system: MCF7
[46] = test system: OVCAR-3
[47] = test system: TK-10
[48] = test system: UO-31
[49] = test system: T47D
[50] = test system: SK-MEL-28
[51] = test system: SF-268
[52] = test system: NCI-H460
[53] = test system: LOX IMVI
[54] = test system: HL-60
[55] = test system: HCT-116
[56] = test system: K562
[57] = test system: NCI/ADR-RES
[58] = test system: HOP-92

In the case of `CNNC1=NS(=O)(=O)c2cc(C#N)c(Cl)cc2S1`, the GI50 [1] is reported as > 10 µM (inactive), the GI50 [2] is reported as > 10 µM (inactive) and the GI50 [3] is reported as > 10 µM (inactive). The GI50 [4] was > 10 µM (inactive), the GI50 [5] was > 10 µM (inactive) and the GI50 [6] was > 10 µM (inactive). The GI50 [7] was > 10 µM (inactive), the GI50 [8] was > 10 µM (inactive) and the GI50 [9] was > 10 µM (inactive). For the same compound, the GI50 [10] was > 10 µM (inactive), the GI50 [11] was > 10 µM (inactive) and the GI50 [12] was > 10 µM (inactive). For the same compound, the GI50 [13] was > 10 µM (inactive), the GI50 [14] was > 10 µM (inactive) and the GI50 [15] was > 10 µM (inactive). For the same compound, the GI50 [16] was > 10 µM (inactive), the GI50 [17] was > 10 µM (inactive) and the GI50 [18] was > 10 µM (inactive). The GI50 [19] was > 10 µM (inactive), the GI50 [20] was > 10 µM (inactive) and the GI50 [21] was > 10 µM (inactive). The GI50 [22] was > 10 µM (inactive), the GI50 [23] was greater than 10 µM and the GI50 [24] was > 10 µM (inactive). The GI50 [25] was > 10 µM (inactive), the GI50 [26] was > 10 µM (inactive) and the GI50 [27] was > 10 µM (inactive). For the same compound, the GI50 [28] was > 10 µM (inactive), the GI50 [29] was > 10 µM (inactive) and the GI50 [30] was > 10 µM (inactive). The GI50 [31] was > 10 µM (inactive), the GI50 [32] was > 10 µM (inactive) and the GI50 [33] was > 10 µM (inactive). The GI50 [34] was > 10 µM (inactive), the GI50 [35] was > 10 µM (inactive) and the GI50 [36] was > 10 µM (inactive). The GI50 [37] was > 10 µM (inactive), the GI50 [38] was > 10 µM (inactive) and the GI50 [39] was > 10 µM (inactive). For the same compound, the GI50 [40] was > 10 µM (inactive), the GI50 [41] was > 10 µM (inactive) and the GI50 [42] was > 10 µM (inactive). For the same compound, the GI50 [43] was > 10 µM (inactive), the GI50 [44] was > 10 µM (inactive) and the GI50 [45] was 0.00303 µM (active). For the same compound, the GI50 [46] was > 10 µM (inactive), the GI50 [47] was > 10 µM (inactive) and the GI50 [48] was 1.68 µM (inactive). For the same compound, the GI50 [49] was > 10 µM (inactive), the GI50 [50] was > 10 µM (inactive) and the GI50 [51] was > 10 µM (inactive). The GI50 [52] was > 10 µM (inactive), the GI50 [53] was > 10 µM (inactive) and the GI50 [54] was > 10 µM (inactive). The GI50 [55] was > 10 µM (inactive), the GI50 [56] was > 10 µM (inactive) and the GI50 [57] was > 10 µM (inactive).

For `CC12CCC3c4cc(Br)c(O)c(Br)c4CCC3C1CCC2O` (stereo unspecified), the GI50 [1] was 15.8 µM (inactive), the GI50 [2] was 12.9 µM (inactive) and the GI50 [4] was 29.4 µM (inactive). The GI50 [5] was 16.7 µM (inactive), the GI50 [6] was 25.2 µM (inactive) and the GI50 [7] was 16.3 µM (inactive). The GI50 [9] was 17.9 µM (inactive), the GI50 [10] was 19 µM (inactive) and the GI50 [12] was 14.3 µM (inactive). For the same compound, the GI50 [13] was 13.3 µM (inactive), the GI50 [15] was 18.7 µM (inactive) and the GI50 [16] was 15.4 µM (inactive). The GI50 [17] was 16 µM (inactive), the GI50 [18] was 15.2 µM (inactive) and the GI50 [19] was 23.5 µM (inactive). For the same compound, the GI50 [20] was 14 µM (inactive), the GI50 [21] was 32.7 µM (inactive) and the GI50 [22] was 34.9 µM (inactive). For the same compound, the GI50 [24] was 17.8 µM (inactive), the GI50 [26] was 18.5 µM (inactive) and the GI50 [27] was 18.7 µM (inactive). For the same compound, the GI50 [28] was 14.2 µM (inactive), the GI50 [29] was 22.5 µM (inactive) and the GI50 [30] was 17.7 µM (inactive). For the same compound, the GI50 [31] was 24.3 µM (inactive), the GI50 [33] was 16.3 µM (inactive) and the GI50 [34] was 19.1 µM (inactive). The GI50 [35] was 3.98 µM (inactive), the GI50 [36] was 15 µM (inactive) and the GI50 [37] was 15.6 µM (inactive). The GI50 [38] was 19.5 µM (inactive), the GI50 [39] was 4.23 µM (inactive) and the GI50 [40] was 25.7 µM (inactive). The GI50 [42] was 14 µM (inactive), the GI50 [43] was 12.7 µM (inactive) and the GI50 [44] was 12.7 µM (inactive). For the same compound, the GI50 [45] was 27.2 µM (inactive), the GI50 [46] was 18.9 µM (inactive) and the GI50 [47] was 19.8 µM (inactive). For the same compound, the GI50 [48] was 15.8 µM (inactive), the GI50 [49] was 26.2 µM (inactive) and the GI50 [50] was 17.9 µM (inactive). For the same compound, the GI50 [51] was 19.8 µM (inactive), the GI50 [53] was 18.1 µM (inactive) and the GI50 [54] was 14.8 µM (inactive). The GI50 [55] was 19.1 µM (inactive), the GI50 [56] was 6.18 µM (inactive) and the GI50 [58] was > 10 µM (inactive). The GI50 [57] was 18.5 µM (inactive).

In the case of `CCCCCCc1nn2c(-c3ccc(C)cc3)nnc2s1`, the GI50 [2] is reported as > 100 µM (inactive), the GI50 [3] is reported as > 100 µM (inactive) and the GI50 [4] is reported as 56.1 µM (inactive). The GI50 [6] was > 100 µM (inactive), the GI50 [7] was > 100 µM (inactive) and the GI50 [8] was > 100 µM (inactive). The GI50 [9] was > 100 µM (inactive), the GI50 [10] was > 100 µM (inactive) and the GI50 [11] was 77.1 µM (inactive). For the same compound, the GI50 [13] was > 100 µM (inactive), the GI50 [14] was 67.3 µM (inactive) and the GI50 [15] was > 100 µM (inactive). For the same compound, the GI50 [16] was > 100 µM (inactive), the GI50 [17] was > 100 µM (inactive) and the GI50 [18] was 76.9 µM (inactive). For the same compound, the GI50 [19] was > 100 µM (inactive), the GI50 [20] was > 100 µM (inactive) and the GI50 [21] was > 100 µM (inactive). For the same compound, the GI50 [22] was > 100 µM (inactive), the GI50 [23] was greater than 100 µM and the GI50 [24] was 42.1 µM (inactive). For the same compound, the GI50 [25] was > 100 µM (inactive), the GI50 [26] was 81.8 µM (inactive) and the GI50 [27] was > 100 µM (inactive). The GI50 [28] was > 100 µM (inactive), the GI50 [29] was > 100 µM (inactive) and the GI50 [30] was 46.2 µM (inactive). The GI50 [32] was > 100 µM (inactive), the GI50 [33] was > 100 µM (inactive) and the GI50 [34] was > 100 µM (inactive). For the same compound, the GI50 [35] was > 100 µM (inactive), the GI50 [36] was 32.6 µM (inactive) and the GI50 [37] was > 100 µM (inactive). The GI50 [38] was > 100 µM (inactive), the GI50 [39] was > 100 µM (inactive) and the GI50 [40] was > 100 µM (inactive). For the same compound, the GI50 [41] was > 100 µM (inactive), the GI50 [42] was 68.9 µM (inactive) and the GI50 [44] was 77.8 µM (inactive). For the same compound, the GI50 [45] was > 100 µM (inactive), the GI50 [46] was > 100 µM (inactive) and the GI50 [47] was > 100 µM (inactive). The GI50 [48] was > 100 µM (inactive), the GI50 [49] was 58.7 µM (inactive) and the GI50 [50] was > 100 µM (inactive). For the same compound, the GI50 [51] was > 100 µM (inactive), the GI50 [52] was 80 µM (inactive) and the GI50 [55] was 49.2 µM (inactive). For the same compound, the GI50 [56] was > 100 µM (inactive) and the GI50 [57] was > 100 µM (inactive).
